From patent US20230192617A1, “AZABICYCLIC(THIO)AMIDES AS FUNGICIDAL COMPOUNDS” (Bayer CropScience Aktiengesellschaft, priority 2020, published 2023)

What was measured:
[1] = tested on: Colletotrichum lindemuthianum; assay: In vivo preventive test on Colletotrichum lindemuthianum (leaf spot on bean); settings: 168 h, 500 ppm of active ingredient, preventive spray on bean, evaluated 7 days after inoculation, read-out: efficacy
How it was run: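 Young bean plants sprayed with compound in DMSO/acetone/Tween 80 diluted in water; solvent-only controls. Inoculated 24 h later with C. lindemuthianum spore suspension, then kept 24 h at 20 °C/100% RH and 6 days at 20 °C/90% RH.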

Pyrenophora teres = assay: In vivo preventive test on Pyrenophora teres (net blotch on barley); settings: 240 h, 500 ppm of active ingredient, preventive spray on barley, evaluated 10 days after inoculation, read-out: efficacy
How it was run: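 Net blotch spores were sprayed onto barley leaves one day after foliar treatment with water-diluted DMSO/acetone/Tween 80 formulations (solvent-only controls). Plants were kept at 20° C: first 48 hours at 100% relative humidity, then 8 days at 70-80%.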

Septoria tritici = assay: B-9. Septoria tritici in vitro cell test; assay type: cell-based; settings: Zymoseptoria tritici, 168 h; 20 ppm of active ingredient; 7 days incubation; liquid culture, absorbance; read-out: efficacy (inhibition of fungal growth)
How it was run: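 Compounds from DMSO stocks (final DMSO ≤1%) were added to liquid medium containing S. tritici spores to test inhibition of germination and mycelial growth. After 7 days, mycelium growth was read spectrometrically and inhibition derived from absorbance versus fungicide-free control wells.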

SMILES | pest or weed control at 500 ppm [1] | pest or weed control at 500 ppm (Pyrenophora teres) | inhibition at 20 ppm (Septoria tritici)
O=C(NCC(F)(F)c1ccc(Br)cc1Cl)c1c(Oc2cccc(C(F)(F)F)c2)nnc2c1COCC2 [I-229] | 90 to 100% | 70 to 79% | 90 to 100%
Cc1ccc(C(F)(F)CNC(=O)c2c(Oc3cccc(C(F)(F)F)c3)nnc3c2CCCC3)c(Cl)c1 [I-239] | 90 to 100% | 90 to 100% | 90 to 100%
Cc1ccc(C(F)(F)CNC(=O)c2c(Oc3cccc(C(F)F)c3)nnc3c2CCCC3)c(Cl)c1 [I-243] | 90 to 100% | 90 to 100% | 90 to 100%
Cc1ccc(C(F)(F)CNC(=O)c2c(Oc3cccc(C(F)(F)F)c3)nnc3cc(C)ccc23)c(Cl)c1 [I-245] | 80 to 89% | 90 to 100% | 80 to 89%
Cc1ccc2c(C(=O)NCC(F)(F)c3ccc(C)c(C)c3)c(Oc3cccc(C(F)(F)F)c3)nnc2c1 [I-246] | 80 to 89% | 80 to 89% | 90 to 100%
